In patent publication US20050090520A1 (priority 2003, published 2005):
Like-named read-outs stand apart in the source and are kept apart here.

How the values were obtained:
[1] = target: T1, S1P4 (Homo sapiens, UniProt O95977); details: Mandala et al., 2002; CHO cell membranes; read-out: Binding (IC50) S1P4; cited from earlier work
T1 sequence (O95977 1-384): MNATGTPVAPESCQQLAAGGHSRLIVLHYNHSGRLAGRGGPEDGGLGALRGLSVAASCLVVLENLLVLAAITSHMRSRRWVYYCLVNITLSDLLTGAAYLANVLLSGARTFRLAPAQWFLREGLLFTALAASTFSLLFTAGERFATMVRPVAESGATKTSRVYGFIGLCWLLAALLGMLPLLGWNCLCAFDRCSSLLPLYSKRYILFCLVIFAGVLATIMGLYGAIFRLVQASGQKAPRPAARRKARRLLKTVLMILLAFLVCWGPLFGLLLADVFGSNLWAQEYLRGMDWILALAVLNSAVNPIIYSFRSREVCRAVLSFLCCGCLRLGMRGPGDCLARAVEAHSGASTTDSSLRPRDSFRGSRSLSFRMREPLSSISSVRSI

[2] = target: T1, S1P4; details: read-out: Potency (EC50) S1P4, cited from earlier work
[3] = monkeys; cited from earlier work
[4] = target: T2, CYP4F3 (Homo sapiens, UniProt Q08477); details: cited from earlier work
T2 sequence (Q08477 1-520): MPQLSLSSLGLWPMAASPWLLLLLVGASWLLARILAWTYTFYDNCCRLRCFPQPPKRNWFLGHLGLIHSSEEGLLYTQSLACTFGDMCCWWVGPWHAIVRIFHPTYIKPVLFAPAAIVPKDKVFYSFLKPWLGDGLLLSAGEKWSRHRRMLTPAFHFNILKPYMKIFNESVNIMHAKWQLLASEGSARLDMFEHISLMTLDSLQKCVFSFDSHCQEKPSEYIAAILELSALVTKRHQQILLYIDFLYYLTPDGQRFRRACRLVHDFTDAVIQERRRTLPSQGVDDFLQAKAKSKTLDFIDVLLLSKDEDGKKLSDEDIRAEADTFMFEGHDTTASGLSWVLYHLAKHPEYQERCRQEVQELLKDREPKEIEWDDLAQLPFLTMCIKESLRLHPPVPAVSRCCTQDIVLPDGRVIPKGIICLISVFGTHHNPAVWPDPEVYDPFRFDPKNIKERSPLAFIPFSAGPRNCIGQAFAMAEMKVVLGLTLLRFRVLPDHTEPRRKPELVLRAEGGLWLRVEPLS

[5] = dog models, dosages below 200 mg/kg; IDDB; cited from earlier work
[6] = target: S1P3 (Homo sapiens, UniProt Q99500); details: Mandala et al., 2002; CHO cell membranes; read-out: Binding (IC50) S1P3; cited from earlier work
Sequence of S1P3 (Q99500 whole entry, species assumed): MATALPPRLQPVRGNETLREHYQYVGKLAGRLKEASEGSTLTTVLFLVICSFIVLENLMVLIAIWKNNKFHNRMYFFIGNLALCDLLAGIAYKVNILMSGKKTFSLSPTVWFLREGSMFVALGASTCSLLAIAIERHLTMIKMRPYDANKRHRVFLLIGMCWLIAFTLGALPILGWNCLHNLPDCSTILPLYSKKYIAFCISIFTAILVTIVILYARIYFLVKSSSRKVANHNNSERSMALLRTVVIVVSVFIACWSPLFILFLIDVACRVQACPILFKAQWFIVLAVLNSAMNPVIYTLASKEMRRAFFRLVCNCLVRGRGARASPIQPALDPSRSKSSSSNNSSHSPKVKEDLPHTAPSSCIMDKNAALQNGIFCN

[7] = system: adult neural stem cells (NSCs); experiment: Lactate dehydrogenase (LDH) cell death assay; type: cell-based, mouse; details: 3 days
Experimental: (§1) The adherent cells were seeded at a density of 30,000 cells/well on poly-D-lysine in DMEM/F12 supplemented with 1% fetal calf serum (FCS).
The death of cells that occurred during the 3 days was measured as leakage of lactate dehydrogenase (LDH) into the medium. […] The proportion of LDH in the medium to total LDH (medium+cells) gives the percentage of cell death. Treated and untreated cells can thus be compared to rule out apoptosis as the cause for the different results observed in the ATP proliferation assay. The amount of LDH was measured according to the instructions of the manufacturer, Promega, USA (see, also, Chen, et al., 2004).

[8] = target: S1P2 (Homo sapiens, UniProt O95136); details: Mandala et al., 2002; CHO cell membranes; read-out: Binding (IC50) S1P2; cited from earlier work
Sequence of S1P2 (O95136 whole entry, species assumed): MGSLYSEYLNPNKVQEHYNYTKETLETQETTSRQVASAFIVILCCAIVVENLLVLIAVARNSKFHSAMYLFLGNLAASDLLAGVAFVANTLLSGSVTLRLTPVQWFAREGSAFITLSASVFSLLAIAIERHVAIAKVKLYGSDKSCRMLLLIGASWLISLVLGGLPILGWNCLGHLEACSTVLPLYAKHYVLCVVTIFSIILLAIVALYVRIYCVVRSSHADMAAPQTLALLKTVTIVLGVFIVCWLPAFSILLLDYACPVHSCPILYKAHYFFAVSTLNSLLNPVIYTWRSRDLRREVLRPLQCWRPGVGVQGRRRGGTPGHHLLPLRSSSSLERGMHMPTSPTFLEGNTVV

[9] = primates, 3 mg/kg; IDDB; cited from earlier work
[10] = dogs; cited from earlier work
[11] = rats, cited from earlier work
[12] = system: adult neural stem cells (NSCs); experiment: Intracellular ATP proliferation assay; type: cell-based, mouse; details: for Increase in intracellular ATP levels: 10 nM, 3 days
Experimental: (§2) The anterior lateral wall of the lateral ventricle of 5-6 week old mice was enzymatically dissociated at 37° C. for 20 min in 0.8 mg/ml hyaluronidase and 0.5 mg/ml trypsin in DMEM containing 4.5 mg/ml glucose and 80 units/ml DNase. The cells were gently triturated and mixed with three volumes of Neurosphere medium (DMEM/F12, B27 supplement, 125 mM HEPES Ph 7.4) containing 20 ng/ml EGF (unless otherwise stated), 100 units/ml penicillin, and 100 μg/ml streptomycin. After passing through a 70 μm strainer, the cells were pelleted at 160×g for 5 min. The supernatant was subsequently removed and the cells resuspended in Neurosphere medium supplemented as above, plated out in culture dishes and incubated at 37° C. Neurosphere cultures were ready to be split approximately 7 days after plating.
To split the neurosphere cultures, neurospheres were collected by centrifugation at 160×g for 5 min. The conditioned supernatant (conditioned medium) was removed and saved. The neurospheres were resuspended in 0.5 ml Trypsin/EDTA in HBSS (1×), incubated at 37° C. for 2 min, and triturated gently to aid dissociation. Following a further 3 min incubation at 37° C. and trituration, 3 volumes of ice cold NSPH-media-EGF were added to stop further trypsin activity. The cells were pelleted at 220×g for 4 min, and resuspended in a 1:1 mixture of fresh Neurosphere medium and conditioned medium. EGF was supplemented to 20 ng/ml and the culture plated out and incubated at 37° C.
as §1
The following experiment was performed in sets of four parallel experiments (i.e., performed in quadruplicate) so that the cells could be used for different assays. […] Cells were lysed with 0.1% Triton-X100 in Tris-EDTA buffer. Intracellular ATP was measured using an ATP-SL kit according to the manufacturer's instructions (BioThema, Sweden). […] For each experiment, wells were visually examined for signs of neurogenesis and counted to confirm the results of the assay. Results were repeatable and statistically significant.

[13] = cited from earlier work
[14] = system: adult neural stem cells (NSCs); experiment: BrdU incorporation proliferation assay; type: cell-based, mouse; details: 10 nM
Experimental: as §2
To split the neurosphere cultures, neurospheres were collected by centrifugation at 160×g for 5 min. The conditioned supernatant (conditioned medium) was removed and saved. The neurospheres were resuspended in 0.5 ml Trypsin/EDTA in HBSS (1×), incubated at 37° C. for 2 min, and triturated gently to aid dissociation. […]
DNA synthesis is commonly used to measure cell proliferation. […] After incorporation if the pyrimidine analogue into DNA, BrdU was detected by immunoassay. […]

[15] = renal transplant patients, single oral dose 0.25-3 mg, whole blood, 96 hours; cited from earlier work
[16] = target: S1P5 (Homo sapiens, UniProt Q9H228); details: Mandala et al., 2002; CHO cell membranes; read-out: Binding (IC50) S1P5; cited from earlier work
Sequence of S1P5 (Q9H228 whole entry, species assumed): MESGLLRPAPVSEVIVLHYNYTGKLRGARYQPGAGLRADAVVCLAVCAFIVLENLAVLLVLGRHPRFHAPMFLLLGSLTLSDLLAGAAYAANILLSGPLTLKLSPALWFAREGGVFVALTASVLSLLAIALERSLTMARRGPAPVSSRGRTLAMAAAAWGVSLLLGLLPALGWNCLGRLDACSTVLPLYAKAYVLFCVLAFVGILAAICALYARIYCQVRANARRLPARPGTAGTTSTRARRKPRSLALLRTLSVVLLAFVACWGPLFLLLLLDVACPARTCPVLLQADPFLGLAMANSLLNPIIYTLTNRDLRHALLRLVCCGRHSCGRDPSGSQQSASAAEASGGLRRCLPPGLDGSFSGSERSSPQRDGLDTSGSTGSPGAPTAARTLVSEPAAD

[17] = rat models; IDDB; cited from earlier work

For `CCCCCCCCc1ccc(CCC(N)(CO)COP(=O)(O)O)cc1` (racemic) [FTY720P], the IC50 [1] is listed as 5.9 nM, the EC50 ([2]; Brinkmann et al., 2002) is listed as 7.2 nM and the EC50 ([2]; Novartis data) is listed as 43 nM.
For `CCCCCCCCc1ccc(CCC(N)(CO)CO)cc1` [FTY720, 2-amino-2-[2-(4-octylphenyl)ethyl]-1,3-propanediol], the Oral bioavailability [3] is given as 40%, the Metabolic route [4] is given as “metabolized primarily by CYP4F3 to the corresponding carboxylic acid” and the IC50 [1] is given as over 5000 nM. For the same molecule, the Deaths [5] was “no deaths were observed”, the IC50 [6] was over 10000 nM and the “Change in LDH levels between control and treated cells” value [7] was “No significant change”. For the same molecule, the IC50 [8] was over 10000 nM, the Toxicity [9] was “no observed toxicity” and the Oral bioavailability [10] was 60%. The T1/2 ([11]; single oral dose 0.1 mg/kg) was 18.1 h, the T1/2 ([11]; single oral dose 1 mg/kg) was 21.6 h and the Oral bioavailability [11] was 80%. The “Concentration of maximum proliferation effect” value ([12]; FIG. 2) was 0.04 nM, the EC50 ([12]; Mus musculus, Neural stem cell, dose-response curve, FIG. 2, read-out: EC50 of in vitro proliferation of NSCs (ATP assay)) was 0.02 nM and the “Increase in intracellular ATP levels” value ([12]; adherent cells) was 42%. For the same molecule, the “Increase in intracellular ATP levels” value ([12]; suspension cells) was 25%, the Adverse events ([13]; PI renal transplant patients, 0.25-3.5 mg single dose) was “no serious adverse events” and the “Only observed side effect” value ([13]; orally administered for immunosuppression) was “mild and transient bradycardia”. The “Increase in BrdU incorporation” value ([14]; adherent cells) was 271%, the “Increase in BrdU incorporation” value ([14]; suspension cells) was 52% and the Absorption [15] was “slowly absorbed”. For the same molecule, the “Cmax and AUC versus dose” value [15] was “proportional to the dose”, the IC50 [16] was 2620 nM and the LD50 [17] was 300 to 600 mg/kg.
